{"source": "PubChem BioAssay AID651879", "about": "(NMMLSC, 2012)", "target": "Botulinum neurotoxin type A light chain protease (Clostridium botulinum A str. ATCC 3502)", "assay": "Clostridium botulinum neurotoxin A protease inhibition, microsphere cleavage flow cytometry, dose response (AID 651879)", "details": "multiplex microsphere protease cleavage assay", "note": "The source made the active and inactive calls. How the calls were made is not given here."}
{"smiles": "CSc1ccc(C2=NN(c3ccc(S(C)(=O)=O)cc3)C(c3ccccc3)C2)cc1", "note": "(centres undefined)", "values": [{"measurement": "EC50", "value": "> 20 µM (inactive)"}]}
{"smiles": "NS(=O)(=O)c1ccc(N2N=C(c3cccnc3)CC2c2ccccc2)cc1", "note": "(centres undefined)", "values": [{"measurement": "EC50", "value": "> 20 µM (inactive)"}]}
{"smiles": "c1ccc(C2CC(c3ccccn3)=NN2c2ccccc2)cc1", "note": "(centres undefined)", "values": [{"measurement": "EC50", "value": "> 20 µM (inactive)"}]}
{"smiles": "O=C(c1ccc(N2N=C(c3ccccc3)CC2c2ccccc2)cc1)N1CCCCC1", "note": "(centres undefined)", "values": [{"measurement": "EC50", "value": "> 20 µM (inactive)"}]}
{"smiles": "O=C(c1ccc(N2N=C(c3ccccc3)CC2c2ccccc2)cc1)N1CCOCC1", "note": "(centres undefined)", "values": [{"measurement": "EC50", "value": "> 20 µM (inactive)"}]}
{"smiles": "CS(=O)(=O)c1ccc(N2N=C(c3ccccc3)CC2c2ccccc2)cc1", "note": "(centres undefined)", "values": [{"measurement": "EC50", "value": "> 20 µM (inactive)"}]}
{"smiles": "c1ccc(-c2cc(-c3ccccc3)n(-c3ccccc3)n2)cc1", "values": [{"measurement": "EC50", "value": "> 20 µM (inactive)"}]}
{"smiles": "CNC(=O)c1ccc(N2N=C(c3ccccc3)CC2c2ccccc2)cc1", "note": "(centres undefined)", "values": [{"measurement": "EC50", "value": "> 20 µM (inactive)"}]}
{"smiles": "COc1ccc(N2N=C(c3ccccc3)CC2c2ccccc2)cc1", "note": "(centres undefined)", "values": [{"measurement": "EC50", "value": "> 20 µM (inactive)"}]}
{"smiles": "COc1ccc(N2N=C(c3ccncc3)CC2c2ccccc2)cc1", "note": "(centres undefined)", "values": [{"measurement": "EC50", "value": "> 20 µM (inactive)"}]}
{"smiles": "O=[N+]([O-])c1ccc(N2N=C(c3ccccc3)CC2c2ccccc2)cc1", "note": "(centres undefined)", "values": [{"measurement": "EC50", "value": "> 20 µM (inactive)"}]}
{"smiles": "CS(=O)(=O)c1ccc(N2N=C(c3ccncc3)CC2c2ccccc2)cc1", "note": "(centres undefined)", "values": [{"measurement": "EC50", "value": "> 20 µM (inactive)"}]}
{"smiles": "COc1ccc(N2N=C(c3cccnc3)CC2c2ccccc2)cc1", "note": "(centres undefined)", "values": [{"measurement": "EC50", "value": "> 20 µM (inactive)"}]}
{"smiles": "COc1ccc(N2N=C(c3ccccn3)CC2c2ccccc2)cc1", "note": "(centres undefined)", "values": [{"measurement": "EC50", "value": "> 20 µM (inactive)"}]}
{"smiles": "CC(C)NC(=O)c1ccc(N2N=C(c3ccccc3)CC2c2ccccc2)cc1", "note": "(centres undefined)", "values": [{"measurement": "EC50", "value": "> 20 µM (inactive)"}]}
{"smiles": "CS(=O)(=O)c1ccc(N2N=C(c3cccnc3)CC2c2ccccc2)cc1", "note": "(centres undefined)", "values": [{"measurement": "EC50", "value": "> 20 µM (inactive)"}]}
{"smiles": "CSc1ccc(C2=NN(c3ccc(C(=O)N4CCCCC4)cc3)C(c3ccccc3)C2)cc1", "note": "(centres undefined)", "values": [{"measurement": "EC50", "value": "> 20 µM (inactive)"}]}
{"smiles": "NS(=O)(=O)c1ccc(N2N=C(c3ccccc3)CC2c2ccccc2)cc1", "note": "(centres undefined)", "values": [{"measurement": "EC50", "value": "> 20 µM (inactive)"}]}
{"smiles": "CSc1ccc(C2=NN(c3ccccc3)C(c3ccccc3)C2)cc1", "note": "(centres undefined)", "values": [{"measurement": "EC50", "value": "> 20 µM (inactive)"}]}
{"smiles": "CSc1ccc(C2=NN(c3ccc(C(=O)N4CCOCC4)cc3)C(c3ccccc3)C2)cc1", "note": "(centres undefined)", "values": [{"measurement": "EC50", "value": "> 20 µM (inactive)"}]}
{"smiles": "c1ccc(C2CC(c3ccncc3)=NN2c2ccccc2)cc1", "note": "(centres undefined)", "values": [{"measurement": "EC50", "value": "> 20 µM (inactive)"}]}
{"smiles": "CNC(=O)c1ccc(N2N=C(c3ccc(SC)cc3)CC2c2ccccc2)cc1", "note": "(centres undefined)", "values": [{"measurement": "EC50", "value": "> 20 µM (inactive)"}]}
{"smiles": "c1ccc(C2CC(c3cccnc3)=NN2c2ccccc2)cc1", "note": "(centres undefined)", "values": [{"measurement": "EC50", "value": "> 20 µM (inactive)"}]}
{"smiles": "CC(C)CNC(=O)c1ccc(N2N=C(c3ccccc3)CC2c2ccccc2)cc1", "note": "(centres undefined)", "values": [{"measurement": "EC50", "value": "> 20 µM (inactive)"}]}
{"smiles": "c1ccc(C2=NN(c3ccccc3)C(c3ccccc3)C2)cc1", "note": "(centres undefined)", "values": [{"measurement": "EC50", "value": "> 20 µM (inactive)"}]}
{"smiles": "CSc1ccc(C2=NN(c3ccc(S(N)(=O)=O)cc3)C(c3ccccc3)C2)cc1", "note": "(centres undefined)", "values": [{"measurement": "EC50", "value": "> 20 µM (inactive)"}]}
{"smiles": "CSc1ccc(C2=NN(c3ccc([N+](=O)[O-])cc3)C(c3ccccc3)C2)cc1", "note": "(centres undefined)", "values": [{"measurement": "EC50", "value": 0.5, "unit": "µM"}]}
{"smiles": "COc1ccc(N2N=C(c3ccc(SC)cc3)CC2c2ccccc2)cc1", "note": "(centres undefined)", "values": [{"measurement": "EC50", "value": "> 20 µM (inactive)"}]}
{"smiles": "NS(=O)(=O)c1ccc(N2N=C(c3ccncc3)CC2c2ccccc2)cc1", "note": "(centres undefined)", "values": [{"measurement": "EC50", "value": "> 20 µM (inactive)"}]}
